Reference: ChEMBL document CHEMBL3885861, “Open TG-GATES”

Species on record: Rattus norvegicus
Assay: Open TG-GATES - Regimen: Daily Repeat
Format: toxicity, organism-based, Sprague-Dawley
Design: regimen Daily Repeat, gender Male, age 6 weeks
Settings: in vivo, po, route gavage; for TG / TP / gamma-GTP / ALP / ALT / CRE / DBIL / GLC / IP / K / LDH / Na / PL / RALB / TBIL / TC / BUN: tissue Plasma
[1] = 60 mg/kg, […], dose level Low, time 28 day
[2] = 200 mg/kg, 72 h, dose level Middle, time 3 day
[3] = 200 mg/kg, 72 h, tissue Blood, dose level Middle, time 3 day
[4] = 200 mg/kg, […], dose level Middle, time 7 day
[5] = 200 mg/kg, […], dose level Middle, time 14 day
[6] = 200 mg/kg, […], dose level Middle, time 28 day
[7] = 200 mg/kg, […], tissue Blood, dose level Middle, time 7 day
[8] = 200 mg/kg, […], tissue Blood, dose level Middle, time 14 day
[9] = 200 mg/kg, […], tissue Blood, dose level Middle, time 28 day

## CCN(CC)C(=S)SSC(=S)N(CC)CC
[1]
  TG: 67.8 mg/dL
  TP: 5.9 g/dL
  gamma-GTP: 1.8 IU/L
[2]
  TERMINAL_BW: 218.6 g
  ALP: 878 IU/L
  ALT: 45 IU/L
  CRE: 0.2 mg/dL
  DBIL: 0.008 mg/dL
  GLC: 170.6 mg/dL
  IP: 7 mg/dL
  K: 4.1 meq/L
  LDH: 195.4 IU/L
  Na: 144 meq/L
  PL: 189.4 mg/dL
  RALB: 3.1 g/dL
  TBIL: 0.014 mg/dL
  TC: 117.8 mg/dL
  TG: 54.8 mg/dL
  TP: 5.6 g/dL
  gamma-GTP: 1.2 IU/L
[3]
  APTT: 22.4 s
  Bas: 0%
  Eos: 1%
  Fbg: 344.8 mg/dL
  Hb: 12.4 g/dL
  Ht: 37.6%
  MCH: 19.7 pg
  MCHC: 32.9%
  MCV: 60 fL
  Mono: 2.2%
  PT: 15.7 s
  Plat: 109.9 x10_4/uL
  RBC: 627.2 x10_4/ul
  Ret: 4.6%
  WBC: 80.4 x10_2/uL
[4]
  TERMINAL_BW: 250.3 g
  ALP: 989.4 IU/L
  ALT: 46 IU/L
  BUN: 18.2 mg/dL
  CRE: 0.2 mg/dL
  DBIL: 0 mg/dL
  GLC: 173.2 mg/dL
  IP: 6.6 mg/dL
  K: 4.3 meq/L
  LDH: 195 IU/L
  Na: 143 meq/L
  PL: 171 mg/dL
  RALB: 3.1 g/dL
  TBIL: 0.006 mg/dL
  TG: 38.2 mg/dL
  TP: 5.8 g/dL
  gamma-GTP: 1.6 IU/L
[5]
  TERMINAL_BW: 290.7 g
  ALP: 989.6 IU/L
  ALT: 38.8 IU/L
  BUN: 22.2 mg/dL
  CRE: 0.2 mg/dL
  DBIL: 0 mg/dL
  GLC: 172.6 mg/dL
  IP: 6.4 mg/dL
  K: 4.2 meq/L
  LDH: 126.6 IU/L
  Na: 142 meq/L
  PL: 181 mg/dL
  RALB: 3.2 g/dL
  TBIL: 0.014 mg/dL
  TC: 104 mg/dL
  TG: 41.2 mg/dL
  TP: 6 g/dL
  gamma-GTP: 3 IU/L
[6]
  TERMINAL_BW: 357.8 g
  ALP: 809.6 IU/L
  ALT: 37.2 IU/L
  BUN: 21.2 mg/dL
  CRE: 0.2 mg/dL
  DBIL: 0 mg/dL
  GLC: 165.8 mg/dL
  IP: 6 mg/dL
  K: 4 meq/L
  LDH: 132 IU/L
  Na: 142 meq/L
  PL: 188 mg/dL
  RALB: 3.3 g/dL
  TBIL: 0.026 mg/dL
  TC: 118 mg/dL
  TG: 38 mg/dL
  TP: 6.4 g/dL
  gamma-GTP: 2.4 IU/L
[7]
  APTT: 20.7 s
  Bas: 0%
  Eos: 1%
  Fbg: 349.8 mg/dL
  Hb: 12.3 g/dL
  Ht: 37.8%
  MCH: 20.2 pg
  MCHC: 32.7%
  MCV: 61.8 fL
  Mono: 2.4%
  PT: 16.3 s
  Plat: 130.6 x10_4/uL
  RBC: 611 x10_4/ul
  Ret: 7.1%
  WBC: 101.3 x10_2/uL
[8]
  APTT: 23.3 s
  Bas: 0%
  Eos: 1%
  Fbg: 348.6 mg/dL
  Hb: 13.6 g/dL
  Ht: 39.4%
  MCH: 20 pg
  MCHC: 34.5%
  MCV: 58 fL
  Mono: 2.4%
  PT: 16.1 s
  RBC: 679.6 x10_4/ul
  Ret: 5.2%
  WBC: 99.9 x10_2/uL
[9]
  APTT: 24.5 s
  Bas: 0%
  Eos: 1.4%
  Fbg: 385.6 mg/dL
  Hb: 14.2 g/dL
  Ht: 40.9%
  MCH: 19 pg
  MCHC: 34.8%
  MCV: 54.7 fL
  Mono: 2%
  Neu: 16%
  PT: 16.3 s
  Plat: 100.5 x10_4/uL
  RBC: 748.8 x10_4/ul
  Ret: 4%
  WBC: 118.2 x10_2/uL
